Measurements reported in article PMC11429243, “The Fluorinated NAD Precursors Enhance FK866 Cytotoxicity by Activating SARM1 in Glioblastoma Cells” (Biology, 2024).

Columns and labels:
NRK2 = molecular target: T1, NRK2 (Homo sapiens, UniProt Q9NPI5); experiment: HPLC of conversion of NR to NMN by purified enzyme; format: biochemical
T1 construct: gene NMRK2; recombinant human NRK2 (CDS of NM_170678.2) in pET22b, E. coli Rosetta (DE3)

NRK1 = molecular target: T2, NRK1 (Homo sapiens, UniProt Q9NWW6); experiment: HPLC of conversion of NR to NMN by purified enzyme; format: biochemical
T2 construct: gene NMRK1; recombinant human NRK1 (CDS of NM_017881.3) in pET22b, E. coli Rosetta (DE3)
T2 sequence (Q9NWW6 1-199): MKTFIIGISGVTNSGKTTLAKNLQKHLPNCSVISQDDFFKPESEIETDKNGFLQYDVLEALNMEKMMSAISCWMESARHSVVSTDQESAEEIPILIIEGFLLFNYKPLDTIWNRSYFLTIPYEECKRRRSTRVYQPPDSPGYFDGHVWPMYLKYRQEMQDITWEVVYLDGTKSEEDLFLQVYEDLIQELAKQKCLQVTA

T1 sequence (Q9NPI5 whole entry): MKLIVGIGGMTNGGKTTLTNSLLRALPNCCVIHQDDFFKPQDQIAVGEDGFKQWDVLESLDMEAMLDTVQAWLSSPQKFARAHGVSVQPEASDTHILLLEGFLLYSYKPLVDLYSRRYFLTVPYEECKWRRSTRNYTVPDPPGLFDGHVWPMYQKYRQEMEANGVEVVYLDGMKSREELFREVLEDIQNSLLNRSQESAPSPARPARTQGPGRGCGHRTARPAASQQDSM

HPLC of conversion of NR to NMN by purified enzyme (NRK2): 17.28 pmol NR/µg/h | HPLC of conversion of NR to NMN by purified enzyme (NRK1): 12.03 pmol NR/µg/h
SMILES: NC(=O)c1ccc[n+]([C@@H]2O[C@H](CO)[C@@H](O)[C@H]2O)c1 [NR, nicotinamide riboside]
